Tests used:
[1] = biological target: T1, epidermal growth factor receptor (EGFR) (Homo sapiens, UniProt P00533); assay: Kinase inhibition EGFR; type: biochemical; conditions: comparable to sunitinib
[2] = biological target: vascular endothelial growth factor receptor (VEGFR2, Flk-1) (Homo sapiens, UniProt P35968); assay: Kinase inhibition VEGFR2; type: biochemical; conditions: comparable to sunitinib
[3] = biological target: platelet derived growth factor receptor-β (PDGFR-β) (Homo sapiens, UniProt P09619); assay: Kinase inhibition PDGFRβ; type: biochemical; conditions: comparable to sunitinib
[4] = biological target: T1, epidermal growth factor receptor (EGFR); conditions: does not inhibit EGFR even at these concentrations; cited from earlier work

T1 sequence (P00533 25-1210, species assumed): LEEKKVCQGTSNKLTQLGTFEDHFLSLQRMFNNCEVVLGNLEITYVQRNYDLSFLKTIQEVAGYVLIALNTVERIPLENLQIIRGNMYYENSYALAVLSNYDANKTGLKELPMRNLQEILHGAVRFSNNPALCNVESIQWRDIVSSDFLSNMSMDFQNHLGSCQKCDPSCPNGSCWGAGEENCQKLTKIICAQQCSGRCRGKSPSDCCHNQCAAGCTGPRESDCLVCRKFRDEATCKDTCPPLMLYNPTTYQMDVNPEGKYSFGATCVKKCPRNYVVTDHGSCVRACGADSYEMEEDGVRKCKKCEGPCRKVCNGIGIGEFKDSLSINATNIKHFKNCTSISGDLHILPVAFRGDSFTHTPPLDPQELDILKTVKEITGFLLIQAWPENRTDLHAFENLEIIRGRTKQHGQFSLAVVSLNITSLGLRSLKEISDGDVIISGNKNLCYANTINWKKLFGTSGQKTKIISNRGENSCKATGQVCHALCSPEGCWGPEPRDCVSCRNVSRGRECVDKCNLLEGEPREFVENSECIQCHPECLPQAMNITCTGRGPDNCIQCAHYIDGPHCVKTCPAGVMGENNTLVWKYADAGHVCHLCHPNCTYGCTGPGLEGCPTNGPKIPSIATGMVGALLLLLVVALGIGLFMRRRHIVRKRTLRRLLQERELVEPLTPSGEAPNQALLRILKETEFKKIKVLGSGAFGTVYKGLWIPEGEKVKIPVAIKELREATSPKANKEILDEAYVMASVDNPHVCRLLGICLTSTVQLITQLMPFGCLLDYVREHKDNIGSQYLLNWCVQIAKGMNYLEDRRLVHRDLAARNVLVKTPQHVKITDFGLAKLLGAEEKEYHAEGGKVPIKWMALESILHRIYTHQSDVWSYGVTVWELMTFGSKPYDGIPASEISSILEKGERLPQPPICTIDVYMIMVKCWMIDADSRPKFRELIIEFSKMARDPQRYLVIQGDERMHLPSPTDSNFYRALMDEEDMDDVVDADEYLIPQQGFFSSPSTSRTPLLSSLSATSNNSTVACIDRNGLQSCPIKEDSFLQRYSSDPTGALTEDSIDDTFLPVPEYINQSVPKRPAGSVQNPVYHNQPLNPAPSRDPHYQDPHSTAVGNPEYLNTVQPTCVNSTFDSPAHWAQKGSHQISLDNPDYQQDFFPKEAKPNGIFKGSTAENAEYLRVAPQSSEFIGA
Chain of platelet derived growth factor receptor-β (PDGFR-β) (P09619 33-1106, species assumed): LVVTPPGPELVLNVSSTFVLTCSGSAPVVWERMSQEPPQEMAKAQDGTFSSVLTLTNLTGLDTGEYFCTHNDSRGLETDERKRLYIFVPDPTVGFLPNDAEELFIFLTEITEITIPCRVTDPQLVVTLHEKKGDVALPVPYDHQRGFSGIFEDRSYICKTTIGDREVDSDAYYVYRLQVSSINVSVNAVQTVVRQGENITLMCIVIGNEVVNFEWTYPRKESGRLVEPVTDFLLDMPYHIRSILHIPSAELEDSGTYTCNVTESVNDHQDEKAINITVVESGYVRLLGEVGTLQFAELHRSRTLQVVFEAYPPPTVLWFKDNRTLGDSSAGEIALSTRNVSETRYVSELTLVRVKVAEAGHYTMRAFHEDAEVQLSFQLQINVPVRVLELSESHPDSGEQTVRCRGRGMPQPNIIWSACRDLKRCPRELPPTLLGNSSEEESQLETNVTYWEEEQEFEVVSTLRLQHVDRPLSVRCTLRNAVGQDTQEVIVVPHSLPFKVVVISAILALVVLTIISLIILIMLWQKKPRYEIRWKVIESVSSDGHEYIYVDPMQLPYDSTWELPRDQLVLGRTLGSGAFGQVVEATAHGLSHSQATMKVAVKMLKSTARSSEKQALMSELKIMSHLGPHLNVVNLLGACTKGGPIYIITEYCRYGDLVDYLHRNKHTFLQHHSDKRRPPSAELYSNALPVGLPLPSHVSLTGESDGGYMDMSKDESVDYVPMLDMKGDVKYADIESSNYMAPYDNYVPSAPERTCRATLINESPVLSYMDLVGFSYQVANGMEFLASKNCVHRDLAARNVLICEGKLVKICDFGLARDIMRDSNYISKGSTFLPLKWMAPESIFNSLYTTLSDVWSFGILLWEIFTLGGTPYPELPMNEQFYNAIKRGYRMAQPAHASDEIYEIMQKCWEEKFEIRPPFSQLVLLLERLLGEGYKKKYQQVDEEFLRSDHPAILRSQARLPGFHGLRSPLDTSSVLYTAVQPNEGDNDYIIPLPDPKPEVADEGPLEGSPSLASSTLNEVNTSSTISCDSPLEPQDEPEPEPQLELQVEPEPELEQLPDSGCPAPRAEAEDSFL
Chain of vascular endothelial growth factor receptor (VEGFR2, Flk-1) (P35968 20-1356): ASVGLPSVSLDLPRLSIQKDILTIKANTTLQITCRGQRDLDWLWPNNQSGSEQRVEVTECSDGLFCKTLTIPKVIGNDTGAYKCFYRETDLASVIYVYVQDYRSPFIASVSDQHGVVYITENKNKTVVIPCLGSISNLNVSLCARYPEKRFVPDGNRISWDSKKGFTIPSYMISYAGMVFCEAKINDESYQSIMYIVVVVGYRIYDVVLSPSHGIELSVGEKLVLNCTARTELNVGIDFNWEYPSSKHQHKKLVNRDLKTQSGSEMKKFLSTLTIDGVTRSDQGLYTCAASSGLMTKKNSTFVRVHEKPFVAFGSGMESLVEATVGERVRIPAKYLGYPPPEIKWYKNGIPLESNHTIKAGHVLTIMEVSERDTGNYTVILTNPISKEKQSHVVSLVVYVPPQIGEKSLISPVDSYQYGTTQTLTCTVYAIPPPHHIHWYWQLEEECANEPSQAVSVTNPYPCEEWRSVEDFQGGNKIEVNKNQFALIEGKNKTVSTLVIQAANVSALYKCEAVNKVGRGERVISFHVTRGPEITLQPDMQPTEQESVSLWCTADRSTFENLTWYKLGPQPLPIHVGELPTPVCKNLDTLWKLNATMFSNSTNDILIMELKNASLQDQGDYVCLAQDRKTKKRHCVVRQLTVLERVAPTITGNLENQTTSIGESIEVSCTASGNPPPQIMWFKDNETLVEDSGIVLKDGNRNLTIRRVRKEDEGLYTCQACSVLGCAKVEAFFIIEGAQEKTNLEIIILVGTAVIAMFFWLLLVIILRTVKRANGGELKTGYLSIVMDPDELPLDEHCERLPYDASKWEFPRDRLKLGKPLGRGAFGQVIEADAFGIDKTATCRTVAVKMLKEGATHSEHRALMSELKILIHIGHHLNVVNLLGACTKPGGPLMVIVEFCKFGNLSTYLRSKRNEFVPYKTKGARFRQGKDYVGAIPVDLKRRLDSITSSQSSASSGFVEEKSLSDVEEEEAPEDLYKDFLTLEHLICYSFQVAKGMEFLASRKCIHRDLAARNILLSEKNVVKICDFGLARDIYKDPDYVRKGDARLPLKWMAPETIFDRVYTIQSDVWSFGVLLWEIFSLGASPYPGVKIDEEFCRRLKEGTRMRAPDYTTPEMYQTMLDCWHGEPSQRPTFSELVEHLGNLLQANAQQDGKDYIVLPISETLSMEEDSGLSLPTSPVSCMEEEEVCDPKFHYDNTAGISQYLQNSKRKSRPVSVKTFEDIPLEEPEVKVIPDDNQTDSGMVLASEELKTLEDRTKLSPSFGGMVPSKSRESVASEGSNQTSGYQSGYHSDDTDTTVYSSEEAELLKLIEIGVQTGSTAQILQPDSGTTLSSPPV

Row | EGFR kinase inhibition (in words, FIG. 16) [1] | Flk-1 (VEGR2) kinase inhibition (in words, FIG. 16) [2] | PDGFR kinase inhibition (in words, FIG. 16) [3] | SMILES | concentration at which EGFR is not inhibited [4]
1 | potent inhibitors | potent inhibitors | potent inhibitors | COc1ccc2c(c1)CCCN2c1nc(C)nc2c1[nH]c1ccccc12 [Composition 106] | 
2 |  |  |  | CN(C)c1ccc(/C=C2\C(=O)Nc3ccccc32)cc1 [DMBI] | greater than 100 μM
